Data as given in ChEMBL document CHEMBL1201862, “PubChem BioAssay data set” (2004).
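How tested: cells in 96-well plates exposed to compound for 48 hours at five concentrations. GI50 is the concentration that inhibits growth by half.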 The source made the active and inactive calls. No stated cut-off is given here; in the data, active = GI50 up to about 1.1 µM and inactive = higher.

Legend:
Experiment in all cases: inhibition of tumour cell growth, NCI panel, 48 h
NCI-H522 = tested on: NCI-H522
A498 = tested on: A498
786-0 = tested on: 786-0
SK-MEL-28 = tested on: SK-MEL-28
TK-10 = tested on: TK-10
ACHN = tested on: ACHN
NCI-H23 = tested on: NCI-H23
OVCAR-3 = tested on: OVCAR-3
NCI-H460 = tested on: NCI-H460
K562 = tested on: K562
SN12C = tested on: SN12C
SK-MEL-5 = tested on: SK-MEL-5
SNB-75 = tested on: SNB-75
MDA-MB-231 = tested on: MDA-MB-231
Hs-578T = tested on: Hs-578T
PC-3 = tested on: PC-3
UACC-257 = tested on: UACC-257
A549 = tested on: A549
MDA-N = tested on: MDA-N
KM-20L2 = tested on: KM-20L2

| Structure (SMILES) | GI50 (NCI-H522) | GI50 (A498) | GI50 (786-0) | GI50 (SK-MEL-28) | GI50 (TK-10) | GI50 (ACHN) | GI50 (NCI-H23) | GI50 (OVCAR-3) | GI50 (NCI-H460) | GI50 (K562) | GI50 (SN12C) | GI50 (SK-MEL-5) | GI50 (SNB-75) | GI50 (MDA-MB-231) | GI50 (Hs-578T) | GI50 (PC-3) | GI50 (UACC-257) | GI50 (A549) | GI50 (MDA-N) | GI50 (KM-20L2) |
| --- | --- | --- | --- | --- | --- | --- | --- | --- | --- | --- | --- | --- | --- | --- | --- | --- | --- | --- | --- | --- |
| CSc1ncc2c(n1)sc1c(=O)n(-c3ccccc3)cnc12 | > 100 µM (inactive) | > 100 µM (inactive) | > 100 µM (inactive) | > 100 µM (inactive) | > 100 µM (inactive) | > 100 µM (inactive) | > 100 µM (inactive) | > 100 µM (inactive) | > 100 µM (inactive) | > 100 µM (inactive) | > 100 µM (inactive) | > 100 µM (inactive) | > 100 µM (inactive) | > 100 µM (inactive) | > 100 µM (inactive) | > 100 µM (inactive) | > 100 µM (inactive) | > 100 µM (inactive) | > 100 µM (inactive) |  |
| Cc1cc(C)c(C2=NO[C@@H]3C(=O)N(c4ccc(Cc5ccc(N6C(=O)[C@H]7C(c8c(C)cc(C)cc8C)=NO[C@H]7C6=O)cc5)cc4)C(=O)[C@H]23)c(C)c1 |  | > 100 µM (inactive) | > 100 µM (inactive) | > 100 µM (inactive) | > 100 µM (inactive) |  | > 100 µM (inactive) | > 100 µM (inactive) |  | > 100 µM (inactive) | > 100 µM (inactive) | > 100 µM (inactive) | > 100 µM (inactive) |  |  |  | 68.4 µM (inactive) | > 100 µM (inactive) |  | > 100 µM (inactive) |
| c1ccc(COc2nc3cc(C45CC6CC(CC(C6)C4)C5)ccc3[nH]2)cc1 | 3.42 µM (inactive) | 23.3 µM (inactive) | 14.9 µM (inactive) | 17.1 µM (inactive) | 4.65 µM (inactive) | 14.6 µM (inactive) | 6.3 µM (inactive) | 22.9 µM (inactive) | 9.2 µM (inactive) | 1.19 µM (inactive) | 18.5 µM (inactive) | 5.53 µM (inactive) | 29.6 µM (inactive) | 21.8 µM (inactive) | 23 µM (inactive) | 9.06 µM (inactive) | 2.92 µM (inactive) | 16.5 µM (inactive) | 11.9 µM (inactive) |  |
| COC1=CC(=O)N(C)C(O)C1(C#N)OC1OC(CO)C(O)C(O)C1O (configuration not stated) | > 100 µM (inactive) | > 100 µM (inactive) | > 100 µM (inactive) | > 100 µM (inactive) | > 100 µM (inactive) | > 100 µM (inactive) | > 100 µM (inactive) | > 100 µM (inactive) | > 100 µM (inactive) | > 10 µM (inactive) | > 100 µM (inactive) | > 100 µM (inactive) | > 100 µM (inactive) | > 100 µM (inactive) | > 100 µM (inactive) | > 100 µM (inactive) | > 100 µM (inactive) | > 100 µM (inactive) | > 100 µM (inactive) |  |
| C/C(=C\c1csc(C)n1)[C@@H]1C[C@@H]2O[C@@H]2CCC[C@H](C)[C@H](O)[C@@H](C)C(=O)C(C)(C)[C@@H](O)CC(=O)O1.C/C(=C\c1csc(C)n1)[C@@H]1C[C@@H]2O[C@]2(C)CCC[C@H](C)[C@H](O)[C@@H](C)C(=O)C(C)(C)[C@@H](O)CC(=O)O1 | 0.00076 µM (active) | 0.0105 µM (active) | 0.005 µM (active) | 0.00475 µM (active) | 0.0439 µM (active) | 0.0179 µM (active) | 0.00664 µM (active) | 0.00333 µM (active) | 0.00129 µM (active) | 0.00787 µM (active) | 0.00562 µM (active) | 0.00408 µM (active) | 0.00384 µM (active) | 0.00893 µM (active) | 0.00378 µM (active) | 0.00469 µM (active) | 0.145 µM (active) | 0.0039 µM (active) | 0.000326 µM (active) |  |
| Cn1cc(NC(=O)c2cc(NC(=O)CCCCCCCCCCC(=O)Nc3cc(C(=O)Nc4cc(C(=O)NCCC(=N)N)n(C)c4)n(C)c3)cn2C)cc1C(=O)NCCC(=N)N | 12.1 µM (inactive) |  | 23.6 µM (inactive) | > 10 µM (inactive) | 29.4 µM (inactive) | 29.9 µM (inactive) | 32 µM (inactive) | 52.7 µM (inactive) | 18.6 µM (inactive) | 74 µM (inactive) | 37.1 µM (inactive) | 15.8 µM (inactive) | > 100 µM (inactive) |  |  |  | 7.8 µM (inactive) | 22.2 µM (inactive) |  | 27 µM (inactive) |
| CC(=O)OC/C=C(/C=C/CNC1CCCCC1)OC(C)=O | 21.4 µM (inactive) | 19.8 µM (inactive) | 11.5 µM (inactive) | 16.8 µM (inactive) | 16.6 µM (inactive) | 16.4 µM (inactive) | 16.3 µM (inactive) | 17.4 µM (inactive) | 24.1 µM (inactive) | 12.9 µM (inactive) | 16.7 µM (inactive) | 17.9 µM (inactive) | 31.3 µM (inactive) | 14.3 µM (inactive) | 36.3 µM (inactive) | 17.3 µM (inactive) | 15.1 µM (inactive) | 47.8 µM (inactive) | 18 µM (inactive) |  |
| CC(C)(C)c1cc(OCc2nnc(S)n2N)c(Cl)cc1OCc1nnc(S)n1N | 35.2 µM (inactive) | 30.6 µM (inactive) | 59.6 µM (inactive) | 45.9 µM (inactive) | 52.2 µM (inactive) | 63.7 µM (inactive) | 42.8 µM (inactive) | 32.4 µM (inactive) | 24 µM (inactive) | 37.7 µM (inactive) | 28.4 µM (inactive) | 26.5 µM (inactive) | 44.1 µM (inactive) | 27.5 µM (inactive) | 43 µM (inactive) | 28.2 µM (inactive) | 33 µM (inactive) | 52.2 µM (inactive) | 41.3 µM (inactive) |  |
| CCC(C(=O)c1cccs1)C(O)(C(F)(F)F)C(F)(F)F (configuration not stated) | > 100 µM (inactive) | > 100 µM (inactive) | > 100 µM (inactive) | > 100 µM (inactive) | > 100 µM (inactive) | > 100 µM (inactive) | > 100 µM (inactive) | > 100 µM (inactive) | > 100 µM (inactive) | > 100 µM (inactive) | > 100 µM (inactive) | > 100 µM (inactive) | > 100 µM (inactive) | > 100 µM (inactive) | > 100 µM (inactive) | > 100 µM (inactive) | > 100 µM (inactive) | > 100 µM (inactive) | > 100 µM (inactive) |  |
| C[N+]1(CCCCN2c3ccccc3Sc3cc(N=[N+]=[N-])ccc32)CCN(C(=O)CCNC(=O)Cc2ccc(C(=O)c3ccccc3)cc2)CC1 | 24.4 µM (inactive) | 26.4 µM (inactive) | 27 µM (inactive) | 16 µM (inactive) | 11.4 µM (inactive) | 19.2 µM (inactive) | 26.4 µM (inactive) | 20.4 µM (inactive) | 24.6 µM (inactive) | 7.19 µM (inactive) | 21.2 µM (inactive) | 20.6 µM (inactive) | 20.3 µM (inactive) | 25.4 µM (inactive) | 34 µM (inactive) | 20.5 µM (inactive) | 31.3 µM (inactive) | 27.4 µM (inactive) | 24.8 µM (inactive) |  |
| CCOc1ccccc1N1C(=O)C(=O)C(c2nc3ccccc3s2)C(=O)C1=O |  | 16.6 µM (inactive) | 5.36 µM (inactive) | > 100 µM (inactive) | 24.5 µM (inactive) | 5.86 µM (inactive) | > 100 µM (inactive) | 17.4 µM (inactive) | 26.4 µM (inactive) |  | 79.4 µM (inactive) |  | 23.8 µM (inactive) |  |  |  | > 100 µM (inactive) | 20 µM (inactive) |  | > 100 µM (inactive) |
| CC1=CC(N2C(=O)C(C)=CC2O)NC1=O (configuration not stated) | > 100 µM (inactive) |  | > 100 µM (inactive) | > 100 µM (inactive) | > 100 µM (inactive) |  | > 100 µM (inactive) | > 100 µM (inactive) | > 100 µM (inactive) |  | > 100 µM (inactive) |  | > 100 µM (inactive) |  |  |  | > 100 µM (inactive) | > 100 µM (inactive) |  | > 100 µM (inactive) |
| CC(=O)OCCC1c2ccccc2-n2nc(-c3ccccc3)c(O)c21 (configuration not stated) | 16.6 µM (inactive) | 16.4 µM (inactive) | 18.6 µM (inactive) | 16.2 µM (inactive) | 22.1 µM (inactive) | 19.1 µM (inactive) | 16.6 µM (inactive) | 21.3 µM (inactive) | 14.5 µM (inactive) | 10.8 µM (inactive) | 14.8 µM (inactive) | 17 µM (inactive) | 20.8 µM (inactive) | 19.3 µM (inactive) | 19.5 µM (inactive) | 17.3 µM (inactive) | 16.8 µM (inactive) | 17.7 µM (inactive) | 17.5 µM (inactive) |  |
| CC1=CC(C)C(C)N(CCNC(=O)Nc2ccccc2)c2ccccc21 (configuration not stated) | 12.1 µM (inactive) | 16.2 µM (inactive) | 30.3 µM (inactive) | 28.6 µM (inactive) | 20.9 µM (inactive) | 15.8 µM (inactive) | 17.6 µM (inactive) | 16 µM (inactive) | 19.8 µM (inactive) | 17.1 µM (inactive) | 25.9 µM (inactive) | 14.1 µM (inactive) | 27.3 µM (inactive) | 13.3 µM (inactive) | 2.33 µM (inactive) | 13.2 µM (inactive) | 13.7 µM (inactive) | 12 µM (inactive) | 22.5 µM (inactive) |  |
| C=C(C)[C@@H]1CC[C@]2(C(=O)OC)CC[C@]3(C)[C@H](CC[C@@H]4[C@@]5(C)CC[C@H](O)C(C)(C)[C@@H]5CC[C@]43C)[C@@H]12 [METHYL BETULINATE] | 18.9 µM (inactive) | 18.9 µM (inactive) | 19.7 µM (inactive) | 22.3 µM (inactive) | > 10 µM (inactive) | 16.9 µM (inactive) | 30.3 µM (inactive) | 19.8 µM (inactive) | 18.5 µM (inactive) | 20.5 µM (inactive) | 16.1 µM (inactive) | 18.8 µM (inactive) | 21.6 µM (inactive) | 34 µM (inactive) | 21.6 µM (inactive) | 16.7 µM (inactive) | 19.3 µM (inactive) | 17.7 µM (inactive) | 18.2 µM (inactive) |  |
